Source: US9388120B2, “Nitrogen and hindered phenol containing dual functional macromolecular antioxidants: synthesis, performances and applications” (Polnox Corporation, priority 2005, dated 2016)

Experiments:
[1] = Oxidative induction time (OIT) by DSC in polyol ester based base stock oil; conditions: antioxidant at 200 ppm in polyester based base stock; DSC at 200° C., oxygen at 20 ml/min
Protocol: (§1) Macromolecules V and A were tested for their performance in lubricant oils and polymers. The macromolecules were mixed in oil with stirring at 60° C. for 5-15 mins at 200 ppm in petroleum based Group II base stock and polyol based Group V base stock oils. The performance of these antioxidants were evaluated in lubricant base oil stocks including Group II using the DSC technique for determining their oxidation induction times measured in minutes (OIT) at 200° C. The OITs of the antioxidants having structures V and A were compared with commercial antioxidants [L57: Ciba's Irganox L57, 6PPD: N-hexyl phenyl-1,4-phenylene diamine CAS #793-24-8)].
The summary of performance of antioxidants I, II, V, X, XVIII and A and their comparison with commercial antioxidants L 57 and 6PPD in synthetic polyol ester based oil is shown in Table 1. The macromolecules were mixed in oil with stirring at 60° C. for 5-15 mins at 200 ppm in petroleum based Group II base stock and polyol based Group V base stock oils.

[2] = Oxidative induction time (OIT) by DSC in Group II lubricating base oil; conditions: 200 ppm; for OIT performance (FIG. 2) compared with commercial antioxidants: GII base oil, DSC at 200° C., versus L57 and 6PPD
Protocol: Macromolecule A was mixed with oil at 60° C. for 5-15 minutes at 200 ppm in petroleum based group II base stock oil and polyol based Group V base stock oils. It was tested using differential scanning calorimetry (DSC). Its Oxidative Induction Time (OIT) was also compared with commercially used antioxidants 2,6-di-tert-butyl-phenol, Naugalube APAN (PANA) and Vanlube 81 (DODP).
as §1

[3] = Solubility in Group II lubricant oil base stock; format: physicochemical; conditions: 10 g in 90 g Group II lubricant oil base stock, stirred 15 mins at 60° C.; industry standard 1-2%
Protocol: [drawing 67] 10 g of the antioxidant V was added to 90 g of Group II lubricant oil base stock in a beaker. […] This solubility is much higher than the typical industry standards of 1-2%.

SMILES | OIT @ 200 ppm [1] [min] | OIT performance (FIG. 2) compared with commercial antioxidants [2] | protection of lubricating oils against oxidation (OIT, FIG. 1) compared with commercial antioxidants ([2]; Group II lubricating oil, DSC, versus 2,6-di-tert-butyl-phenol, Naugalube APAN (PANA), Vanlube 81 (DODP)) | solubility in Group II base stock [3]
CC(C)(C)c1cc(CNc2ccc(Nc3ccccc3)cc2)c(O)c(C(C)(C)C)c1 [A] | 37 | superior performance | superior | –
CC(C)CC(C)Nc1ccc(Nc2ccccc2)cc1 (centres unmarked) [Antioxidant 6PPD, N-hexyl phenyl-1,4-phenylene diamine, reference compound] | 22 | – | – | –
CC(C)CC(C)N(Cc1cc(C(C)(C)C)c(O)c(C(C)(C)C)c1)c1ccc(Nc2ccccc2)cc1 (centres unmarked) [V] | 36 | superior performance | – | homogenous solution
Cc1cc(CNc2ccc(Nc3ccccc3)cc2)cc(C(C)(C)C)c1O [X] | 28 | – | – | –
